Measured values: paper doi:10.1101/2025.07.30.667614, “Steric control of signaling bias in the immunometabolic receptor GPR84” (bioRxiv, 2025)
Like-named read-outs stand apart in the source and are kept apart here.

Legend:
[1] = target: T1, GPR84 (Homo sapiens, UniProt Q9NQS5); test: CHO-K1-based PathHunter β-arrestin-2 recruitment assay; format: cell-based; parameters: host or cells: CHO-K1; details: for Emax: read-out: β-arrestin-2 %Emax ± SEM
Procedure: Cells were stimulated with test ligands for 90 min. Compounds were prepared at 5× concentration in DPBS containing 0.1% BSA and 0.125% Tween-80 to minimise aggregation. β-arrestin recruitment was quantified using the PathHunter® β-Arrestin Assay (DiscoverX 93-0001) following the manufacturer’s instructions. Luminescence was recorded after 18 h using a PHERAstar® FS plate reader.

[2] = target: T1, GPR84; test: CHO-K1-based HitHunter cAMP inhibition assay; format: cell-based; details: wild type GPR84; for EC50: CHO-K1 cells, forskolin 25 μM, read-out: cAMP pEC50 ± SEM (converted); for Emax: normalised to capric acid (100 μM), read-out: cAMP %Emax ± SEM
Procedure: CHO-K1 cells stably expressing human GPR84 (DiscoverX 95-0158C2) were seeded in 384-well plates at 15,000 cells per well in 20 μL of F12 medium supplemented with 10% fetal bovine serum (FBS), 19 mM HEPES, and 1% penicillin-streptomycin. After overnight incubation at 37 °C and 5% CO2, the medium was removed and replaced with PBS containing 0.1% BSA. Cells were stimulated for 30 min with forskolin (25 μM) and test compounds prepared in Dulbecco’s PBS (DPBS) with 0.1% BSA. Compounds were dissolved in DMSO and diluted appropriately. cAMP levels were quantified using the HitHunter® cAMP Assay for Small Molecules (DiscoverX 90-0075SM2) according to the manufacturer’s protocol. Luminescence was measured 18 h post-assay using a PHERAstar® FS plate reader (BMG Labtech).

[3] = target: T2, GPR84 F187A (GPR84-Gi2α fusion protein) (Homo sapiens, UniProt Q9NQS5, F187A); test: [35S]GTPγS binding assay; format: biochemical
T2 construct: FLAG (N); Gαi2-Cys352Ile (fusion partner) (C); expressed in transfected cells
Procedure: (§1) Membranes were generated from Flp-In™ T-REx™ 293 cells following 100 ng/ml doxycycline treatment to induce receptor expression. Cells were washed with ice-cold phosphate-buffered saline (PBS), removed from dishes by scraping and centrifuged at 1,800 x g for 5 min at 4 °C. Pellets were resuspended in TE buffer (10mM Tris-HCl, 0.1 mM EDTA; pH 7.4) containing a protease inhibitor mixture and homogenized with a 5 ml hand-held homogenizer. Samples were centrifuged at 450 x g for 5 min at 4 °C and the supernatant was further centrifuged at 90,000 x g for 45 min at 4 °C. The resulting pellet was resuspended in TE buffer and protein content was assessed using a BCA protein assay kit.
(§2) Prepared membrane protein (3 μg per well) was incubated in assay buffer (20 mM HEPES, 5 mM MgCl2, 160 mM NaCl, 0.05 % fatty-acid-free bovine serum albumin; pH 7.4) containing the indicated ligand concentrations. The reaction was initiated by addition of [^35S]GTPγS (100 nCi per reaction) with 1 μM GDP, and incubated at 30 °C for 60 min. The reaction was terminated by rapid vacuum filtration through GF/C glassfibre filter-bottom 96-well microplates using a UniFilter FilterMate Harvester (PerkinElmer). Unbound radioligand was removed from filters by three washes with ice-cold PBS. Ultima Gold™ XR was added to dried filters, and [^35S]GTPγS binding quantified by liquid scintillation spectroscopy.

[4] = target: T3, GPR84 S169A (GPR84-Gi2α fusion protein) (Homo sapiens, UniProt Q9NQS5, S169A); test: [35S]GTPγS binding assay; format: biochemical; details: for fold reduced potency compared to wild type: Ser169Ala; for Emax: read-out: Emax ± SEM
T3 construct: FLAG (N); Gαi2-Cys352Ile (fusion partner) (C); expressed in transfected cells
Procedure: as §1, §2

[5] = target: T4, GPR84 T167A (GPR84-Gi2α fusion protein) (Homo sapiens, UniProt Q9NQS5, T167A); test: [35S]GTPγS binding assay; format: biochemical; details: for fold reduction in potency compared to wild type: Thr167Ala; for Emax: read-out: Emax ± SEM
T4 construct: FLAG (N); Gαi2-Cys352Ile (fusion partner) (C); expressed in transfected cells
Procedure: as §1, §2

[6] = target: T5, GPR84 L336A (GPR84-Gi2α fusion protein) (Homo sapiens, UniProt Q9NQS5, L336A); test: [35S]GTPγS binding assay; format: biochemical
T5 construct: FLAG (N); Gαi2-Cys352Ile (fusion partner) (C); expressed in transfected cells
Procedure: as §1, §2

[7] = target: T6, GPR84 Y332F (Homo sapiens, UniProt Q9NQS5, Y332F); test: [35S]GTPγS binding assay; format: biochemical; details: for Emax: read-out: Emax ± SEM
T6 construct: FLAG (N); Gαi2-Cys352Ile (fusion partner) (C); expressed in transfected cells
Procedure: as §1, §2

[8] = target: T7, GPR84 W360A (GPR84-Gi2α fusion protein) (Homo sapiens, UniProt Q9NQS5, W360A); test: [35S]GTPγS binding assay; format: biochemical; details: for fold reduced potency compared to wild type: Trp360Ala; for Emax: read-out: Emax ± SEM
T7 construct: FLAG (N); Gαi2-Cys352Ile (fusion partner) (C); expressed in transfected cells
Procedure: as §1, §2

[9] = target: T8, GPR84 Y69A (GPR84-Gi2α fusion protein) (Homo sapiens, UniProt Q9NQS5, Y69A); test: [35S]GTPγS binding assay; format: biochemical; details: for Emax: read-out: Emax ± SEM
T8 construct: FLAG (N); Gαi2-Cys352Ile (fusion partner) (C); expressed in transfected cells
Procedure: as §1, §2

[10] = target: T9, GPR84 N362S (Homo sapiens, UniProt Q9NQS5, N362S); test: [35S]GTPγS binding assay; format: biochemical; details: for Emax: read-out: Emax ± SEM
T9 construct: FLAG (N); Gαi2-Cys352Ile (fusion partner) (C); expressed in transfected cells
Procedure: as §1, §2

[11] = target: T10, GPR84 Y332A (Homo sapiens, UniProt Q9NQS5, Y332A); test: [35S]GTPγS binding assay; format: biochemical; details: for Emax: read-out: Emax ± SEM
T10 construct: FLAG (N); Gαi2-Cys352Ile (fusion partner) (C); expressed in transfected cells
Procedure: as §1, §2

[12] = target: GPR84-WT (GPR84-Gi2α fusion protein) (Homo sapiens, UniProt Q9NQS5); test: [35S]GTPγS binding assay; format: biochemical; details: for Emax: read-out: Emax ± SEM
Procedure: as §1, §2

[13] = target: T11, GPR84 N104A (GPR84-Gi2α fusion protein) (Homo sapiens, UniProt Q9NQS5, N104A); test: [35S]GTPγS binding assay; format: biochemical; details: for fold reduction in potency compared to wild type: Asn104Ala; for Emax: read-out: Emax ± SEM
T11 construct: FLAG (N); Gαi2-Cys352Ile (fusion partner) (C); expressed in transfected cells
Procedure: as §1, §2

[14] = target: T12, GPR84 Y81A (GPR84-Gi2α fusion protein) (Homo sapiens, UniProt Q9NQS5, Y81A); test: [35S]GTPγS binding assay; format: biochemical; details: for fold reduced potency compared to wild type: Tyr81Ala; for Emax: read-out: Emax ± SEM
T12 construct: FLAG (N); Gαi2-Cys352Ile (fusion partner) (C); expressed in transfected cells
Procedure: as §1, §2

[15] = F187A, read-out: pEC50 ± SEM (converted)
[16] = L336A, read-out: pEC50 ± SEM (converted)

T7 sequence (Q9NQS5 whole entry W360A, the tested form may be a part): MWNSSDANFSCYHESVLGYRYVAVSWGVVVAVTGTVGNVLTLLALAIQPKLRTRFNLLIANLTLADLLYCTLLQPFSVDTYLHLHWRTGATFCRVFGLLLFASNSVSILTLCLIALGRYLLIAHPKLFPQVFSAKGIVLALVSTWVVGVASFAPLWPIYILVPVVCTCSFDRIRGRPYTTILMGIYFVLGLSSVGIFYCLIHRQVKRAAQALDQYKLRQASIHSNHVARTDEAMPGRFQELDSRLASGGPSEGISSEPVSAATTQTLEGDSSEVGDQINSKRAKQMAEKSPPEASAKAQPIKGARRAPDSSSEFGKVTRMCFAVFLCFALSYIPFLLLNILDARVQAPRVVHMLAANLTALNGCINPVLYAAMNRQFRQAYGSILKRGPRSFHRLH
T5 sequence (Q9NQS5 whole entry L336A, the tested form may be a part): as the sequence (Q9NQS5 whole entry W360A, the tested form may be a part) above, with L336A, A360W counted along it
T3 sequence (Q9NQS5 whole entry S169A, the tested form may be a part): as the sequence (Q9NQS5 whole entry W360A, the tested form may be a part) above, with S169A, A360W counted along it
T4 sequence (Q9NQS5 whole entry T167A, the tested form may be a part): as the sequence (Q9NQS5 whole entry W360A, the tested form may be a part) above, with T167A, A360W counted along it
T8 sequence (Q9NQS5 whole entry Y69A, the tested form may be a part): as the sequence (Q9NQS5 whole entry W360A, the tested form may be a part) above, with Y69A, A360W counted along it
GPR84-WT (GPR84-Gi2α fusion protein), sequence (Q9NQS5 whole entry, the tested form may be a part): as the sequence (Q9NQS5 whole entry W360A, the tested form may be a part) above, with A360W counted along it
GPR84-WT (GPR84-Gi2α fusion protein), sequence (P04899 with tags, fused parts or gaps C352I partner): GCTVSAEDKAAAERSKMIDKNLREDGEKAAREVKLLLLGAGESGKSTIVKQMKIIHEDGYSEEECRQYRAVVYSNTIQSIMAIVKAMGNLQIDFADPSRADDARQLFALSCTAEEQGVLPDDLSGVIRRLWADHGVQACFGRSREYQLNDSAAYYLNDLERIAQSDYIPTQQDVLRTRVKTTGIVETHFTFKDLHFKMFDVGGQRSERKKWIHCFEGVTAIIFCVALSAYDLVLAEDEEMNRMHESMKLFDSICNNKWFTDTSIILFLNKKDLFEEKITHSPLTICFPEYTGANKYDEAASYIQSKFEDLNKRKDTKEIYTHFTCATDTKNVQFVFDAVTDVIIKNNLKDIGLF
T1 sequence (Q9NQS5 whole entry): as the sequence (Q9NQS5 whole entry W360A, the tested form may be a part) above, with A360W counted along it
T9 sequence (Q9NQS5 whole entry N362S, the tested form may be a part): as the sequence (Q9NQS5 whole entry W360A, the tested form may be a part) above, with A360W, N362S counted along it
T11 sequence (Q9NQS5 whole entry N104A, the tested form may be a part): as the sequence (Q9NQS5 whole entry W360A, the tested form may be a part) above, with N104A, A360W counted along it
T12 sequence (Q9NQS5 whole entry Y81A, the tested form may be a part): as the sequence (Q9NQS5 whole entry W360A, the tested form may be a part) above, with Y81A, A360W counted along it
T2 sequence (Q9NQS5 whole entry F187A, the tested form may be a part): as the sequence (Q9NQS5 whole entry W360A, the tested form may be a part) above, with F187A, A360W counted along it
T6 sequence (Q9NQS5 whole entry Y332F, the tested form may be a part): as the sequence (Q9NQS5 whole entry W360A, the tested form may be a part) above, with Y332F, A360W counted along it
T10 sequence (Q9NQS5 whole entry Y332A, the tested form may be a part): as the sequence (Q9NQS5 whole entry W360A, the tested form may be a part) above, with Y332A, A360W counted along it

Structure (SMILES) | Emax [1] | EC50 [2] | Emax [2] | EC50 [3, 15] | EC50 ([4]; [35S]GTPγS, S169A) | fold reduced potency compared to wild type ([4]; [35S]GTPγS) | EC50 ([5]; [35S]GTPγS, T167A) | fold reduction in potency compared to wild type ([5]; [35S]GTPγS) | EC50 [6, 16] | EC50 ([7]; [35S]GTPγS, Y332F) | fold reduced potency compared to wild type ([8]; [35S]GTPγS) | EC50 ([8]; [35S]GTPγS, W360A) | EC50 ([9]; [35S]GTPγS, Y69A) | EC50 ([10]; [35S]GTPγS, N362S) | EC50 ([11]; [35S]GTPγS, Y332A) | fold reduction in potency compared to wild type ([13]; [35S]GTPγS) | EC50 ([13]; [35S]GTPγS, N104A) | fold reduced potency compared to wild type ([14]; [35S]GTPγS) | EC50 ([14]; [35S]GTPγS, Y81A) | also measured
[O-][n+]1cc(O)cc(CCc2ccc(Cl)c(C(F)(F)F)c2)c1 [OX04529] | 10 ± 1.5% | 0.012 nM | 97 ± 0.2% | 0.102 nM | 417 nM | ~300 fold | 17.8 nM | greater than 10 fold | 0.0692 nM | 2.57 nM | ~10 fold | 8.71 nM | 4.57 nM | 16.6 nM | 0.347 nM | 5 fold | 3.98 nM | ~10 fold | 21.4 nM | fold greater potency than at wild type ([3]; Phe187Ala): more than 10 fold; EC50 ([3]; Phe187Ala, read-out: EC50): ~0.1 nM; Emax [4]: 30 ± 2%; Emax [5]: 82 ± 10%; fold greater potency than at wild type ([6]; Leu336Ala): more than 10 fold; EC50 ([6]; Leu336Ala, read-out: EC50): ~0.1 nM; Emax [7]: 134 ± 12%; Emax [8]: 75 ± 10%; Emax [9]: 94 ± 9%; Emax [10]: 126 ± 30%; Emax [11]: 50 ± 12%; EC50 ([12]; pEC50 ± SEM, [35S]GTPγS, GPR84-WT, Extended Data Table 3): 1.26 nM; EC50 ([12]; pEC50 ± SEM, [35S]GTPγS, GPR84-WT, Extended Data Tables 1 and 5): 1.17 nM; Emax [12]: 119 ± 13%; Emax [13]: 68 ± 8%; Emax [14]: 85 ± 4%
Cc1cc(CCCc2cc(O)c[n+]([O-])c2)ccc1Cl [OX04954] | 71 ± 1.3% | 0.0126 nM | 98 ± 1.8% | 0.107 nM | 380 nM | more than 1000 fold | 15.1 nM | ~10 fold | 0.0427 nM | 4.17 nM | ~10 fold | 13.5 nM | 5.13 nM | 24 nM | 0.427 nM | ~10 fold | 11.7 nM | ~10 fold | 16.2 nM | change in efficacy in β-arrestin-2 recruitment ([1]; compared to OX04929 (so in the source)): no significant change; EC50 ([1]; wild type GPR84, CHO-K1 PathHunter, read-out: β-arrestin-2 pEC50 ± SEM (converted)): 93.3 nM; Emax ([4]; [35S]GTPγS, S169A): 47 ± 11%; Emax ([5]; [35S]GTPγS, T167A): 129 ± 15%; Emax ([7]; [35S]GTPγS, Y332F): 151 ± 10%; Emax ([8]; [35S]GTPγS, W360A): 75 ± 8%; Emax ([9]; [35S]GTPγS, Y69A): 106 ± 4%; Emax ([10]; [35S]GTPγS, N362S): 124 ± 19%; Emax ([11]; [35S]GTPγS, Y332A): 60 ± 11%; EC50 ([12]; [35S]GTPγS, GPR84-WT, Extended Data Table 3, read-out: pEC50 ± SEM (converted)): 0.661 nM; Emax ([12]; [35S]GTPγS, GPR84-WT, Extended Data Tables 1 and 5): 129 ± 12%; EC50 ([12]; [35S]GTPγS, GPR84-WT, Extended Data Tables 1 and 5, read-out: pEC50 ± SEM (converted)): 0.661 nM; Emax ([13]; [35S]GTPγS, N104A): 130 ± 20%; Emax ([14]; [35S]GTPγS, Y81A): 133 ± 18%
